Measured values from patent US11384060B2, “Amide compounds and use thereof” (ALPHALA CO., LTD., priority 2017, dated 2022).

Columns and labels:
[1] = biological target: T1, glucagon receptor (GCGR) overexpressed CHO-K1 cells or human primary hepatocytes (Homo sapiens, UniProt P47871); assay: Glucagon cAMP inhibition assay (Cisbio cAMP Dynamic 2 HTRF); type: cell-based; settings: inhibition of glucagon (EC50 concentration) induced cAMP production
T1 construct: expressed in transfected cells; host or cells: GCGR overexpressed CHO-K1 cells or human primary hepatocytes (endogenous receptor)
Method in brief: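 HTRF read-out of glucagon-induced cAMP, with IC50 from non-linear regression. Cells (GCGR CHO-K1 or human primary hepatocytes) in HBSS/0.1% BSA/800 nM IBMX took compound dilutions for 30 min (final DMSO 1%), then EC50-level glucagon for 30 min at room temperature, then a 60 min lysis/detection step.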

[2] = biological target: T2, glucagon receptor (GCGR) (Homo sapiens, UniProt P47871); assay: I125-glucagon binding assay (competition, GCGR membrane fractions); settings: competition with I125-glucagon 0.0625 nM, membrane fractions of GCGR overexpressed CHO-K1 cells
T2 construct: expressed in transfected cells; host or cells: CHO-K1 cells overexpressing GCGR (membrane fractions)
Method in brief: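 Competition of 0.0625 nM (final) I^125-glucagon for 30 min at 25° C, after 5 min compound preincubation, using 7.5 μg/well GCGR-overexpressing CHO-K1 membranes in 50 mM Tris pH 7.4, 0.5% BSA. Filtration onto PEI-coated GF/B, micro-beta counting, and non-linear regression gave IC50.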

T1 sequence (P47871 26-477): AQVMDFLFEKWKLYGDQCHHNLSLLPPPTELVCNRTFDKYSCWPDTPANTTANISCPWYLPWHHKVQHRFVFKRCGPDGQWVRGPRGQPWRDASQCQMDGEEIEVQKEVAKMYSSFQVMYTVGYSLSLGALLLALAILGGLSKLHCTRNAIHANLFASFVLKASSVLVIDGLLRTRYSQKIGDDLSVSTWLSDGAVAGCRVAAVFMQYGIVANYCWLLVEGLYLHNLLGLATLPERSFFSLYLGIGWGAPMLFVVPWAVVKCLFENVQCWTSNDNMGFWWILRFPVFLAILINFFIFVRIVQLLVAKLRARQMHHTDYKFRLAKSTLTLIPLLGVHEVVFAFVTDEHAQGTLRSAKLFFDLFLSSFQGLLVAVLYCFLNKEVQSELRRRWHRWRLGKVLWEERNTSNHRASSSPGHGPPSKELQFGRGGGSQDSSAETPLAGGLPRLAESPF
T2 sequence (P47871 26-477): as above

Structure (SMILES) | IC50 cAMP [1] [µM] | IC50 [2] [µM]
CCCC[C@@H](COc1ccc(-c2ccc(C(F)(F)F)cc2F)nc1)Nc1ccc(C(=O)NCCC(=O)O)cc1 [Compound 10-8, (S)-3-(4-((1-((6-(2-fluoro-4-(trifluoromethyl)phenyl)pyridin-3-yl)oxy)hexan-2-yl)amino)benzamido)propanoic Acid] | 0.344 | 0.18
CCCC[C@@H](COc1ccc(-c2ccc(C(F)(F)F)cc2)nc1)Nc1ccc(C(=O)NCCC(=O)O)cc1 [Compound 10-9, (S)-3-(4-((1-((6-(4-(trifluoromethyl)phenyl)pyridin-3-yl)oxy)hexan-2-yl)amino)benzamido)propanoic Acid] | 0.465 | 0.127
CCCC[C@@H](COc1ccc(-c2cc(Cl)cc(Cl)c2)nc1)Nc1ccc(C(=O)NCCC(=O)O)cc1 [Compound 10-10, (S)-3-(4-((1-((6-(3,5-dichlorophenyl)pyridin-3-yl)oxy)hexan-2-yl)amino)benzamido) propanoic Acid] | 0.493 | 0.314
CCCC[C@@H](COc1ccc(-c2ccc(C(F)(F)F)cc2Cl)nc1)Nc1ccc(C(=O)NCCC(=O)O)cc1 [Compound 10-11, (S)-3-(4-((1-((6-(2-chloro-4-(trifluoromethyl)phenyl)pyridin-3-yl)oxy)hexan-2-yl)amino)benzamido)propanoic Acid] | 0.5374 | 0.27
CCCC[C@@H](COc1ccc(-c2cc3ccccc3o2)nc1)Nc1ccc(C(=O)NCCC(=O)O)cc1 [Compound 10-12, (S)-3-(4-((1-((6-(benzofuran-2-yl)pyridin-3-yl)oxy)hexan-2-yl)amino)benzamido)propanoic Acid] | 0.7916 | 0.181
CC[C@H](C)[C@@H](COc1ccc(-c2cc3ccccc3o2)nc1)Nc1ccc(C(=O)NCCC(=O)O)cc1 [Compound 10-13, 3-(4-(((2S,3S)-1-((6-(benzofuran-2-yl)pyridin-3-yl)oxy)-3-methylpentan-2-yl)amino)benzamido)propanoic Acid] | 0.8639 | 0.224
CC[C@H](C)[C@@H](COc1ccc(-c2ccc(C(F)(F)F)cc2F)nc1)Nc1ccc(C(=O)NCCC(=O)O)cc1 [Compound 10-14, 3-(4-(((2S,3S)-1-((6-(2-fluoro-4-(trifluoromethyl)phenyl)pyridin-3-yl)oxy)-3-methylpentan-2-yl)amino)benzamido)propanoic Acid] | 0.4971 | 0.306
CC[C@H](C)[C@@H](COc1ccc(-c2ccc(Cl)cc2Cl)nc1)Nc1ccc(C(=O)NCCC(=O)O)cc1 [Compound 10-15, 3-(4-(((2S,3S)-1-((6-(2,4-dichlorophenyl)pyridin-3-yl)oxy)-3-methylpentan-2-yl)amino)benzamido)propanoic Acid] | 0.301 | 0.179
CC[C@H](C)[C@@H](COc1ccc(-c2ccc(C(F)(F)F)cc2Cl)nc1)Nc1ccc(C(=O)NCCC(=O)O)cc1 [Compound 10-16, 3-(4-(((2S,3S)-1-((6-(2-chloro-4-(trifluoromethyl)phenyl)pyridin-3-yl)oxy)-3-methylpentan-2-yl)amino)benzamido)propanoic Acid] | 0.272 | 0.141
CC(C)C[C@@H](COc1ccc(-c2ccc(C(F)(F)F)cc2)nc1)Nc1ccc(C(=O)NCCC(=O)O)cc1 [Compound 10-17, (S)-3-(4-((4-methyl-1-((6-(4-(trifluoromethyl)phenyl)pyridin-3-yl)oxy)pentan-2-yl)amino)benzamido)propanoic Acid] | 0.847 | 0.542
CC(C)C[C@@H](COc1ccc(-c2ccc(C(F)(F)F)cc2Cl)nc1)Nc1ccc(C(=O)NCCC(=O)O)cc1 [Compound 10-18, (S)-3-(4-((1-((6-(2-chloro-4-(trifluoromethyl)phenyl)pyridin-3-yl)oxy)-4-methylpentan-2-yl)amino)benzamido)propanoic Acid] | 0.88 | 0.234
CC(C)C[C@@H](COc1ccc(-c2ccc(Cl)cc2Cl)nc1)Nc1ccc(C(=O)NCCC(=O)O)cc1 [Compound 10-19, (S)-3-(4-((1-((6-(2,4-dichlorophenyl)pyridin-3-yl)oxy)-4-methylpentan-2-yl)amino)benzamido)propanoic Acid] | 1.064 | 0.301

The remaining lines, values ahead:

IC50 cAMP [1] [µM] | IC50 [2] [µM] | Structure (SMILES)
8.711 | 1.74 | CC(C)[C@@H](COc1ccc(-c2ccc(C(F)(F)F)cc2Cl)nc1)Nc1ccc(C(=O)NCCC(=O)O)cn1 [Compound 11-1, (S)-3-(6-((1-((6-(2-chloro-4-(trifluoromethyl)phenyl)pyridin-3-yl)oxy)-3-methylbutan-2-yl)amino)nicotinamido)propanoic Acid]
14.398 | 0.926 | CC(C)[C@@H](COc1ccc(-c2cc3ccccc3o2)nc1)Nc1ccc(C(=O)NCCC(=O)O)cn1 [Compound 11-2, (S)-3-(6-((1-((6-(benzofuran-2)pyridin-3-yl)oxy)-3-methylbutan-2-yl)amino)nicotinamido)propanoic Acid]
14.17 | 0.674 | Cc1nn(-c2ncc(OC[C@H](CC(C)C)Nc3ccc(C(=O)NCCC(=O)O)cc3)cn2)cc1C(F)(F)F [Compound 12-1, (S)-3-(4-((4-methyl-1-((2-(3-methyl-4-(trifluoromethyl)-1H-pyrazol-1-yl)pyrimidin-5-yl)oxy)pentan-2-yl)amino)benzamido)propanoic Acid]
6.849 | 0.266 | CC(C)[C@@H](COc1cnc(-c2cc3ccccc3o2)nc1)Nc1ccc(C(=O)NCCC(=O)O)cc1 [Compound 12-2, (S)-3-(4-((1-((2-(benzofuran-2-yl)pyrimidin-5-yl)oxy)-3-methylbutan-2-yl)amino)benzamido)propanoic Acid]
>30 | 0.608 | CC(C)C[C@@H](COc1cnc(-c2cc3ccccc3o2)nc1)Nc1ccc(C(=O)NCCC(=O)O)cc1 [Compound 12-3, (S)-3-(4-((1-((2-(benzofuran-2-yl)pyrimidin-5-yl)oxy)-4-methylpentan-2-yl)amino)benzamido)propanoic Acid]
9.828 | 0.539 | CC(C)[C@@H](COc1cnc(-c2ccc(C(F)(F)F)cc2Cl)nc1)Nc1ccc(C(=O)NCCC(=O)O)cc1 [Compound 12-4]
2.357 | 0.451 | CCCC[C@@H](COc1cnc(-c2ccc(C(F)(F)F)cc2Cl)nc1)Nc1ccc(C(=O)NCCC(=O)O)cc1 [Compound 12-5, (S)-3-(4-((1-((2-(2-chloro-4-(trifluoromethyl)phenyl)pyrimidin-5-yl)oxy)hexan-2-yl)amino)benzamido)propanoic Acid]
>30 | 1.67 | CC(C)[C@@H](COc1cnc(-c2ccc(Cl)cc2Cl)nc1)Nc1ccc(C(=O)NCCC(=O)O)cc1 [Compound 12-6, (S)-3-(4-((1-((2-(2,4-dichlorophenyl)pyrimidin-5-yl)oxy)-3-methylbutan-2-yl)amino)benzamido)propanoic Acid]
3.868 | 0.888 | CCCC[C@@H](COc1cnc(-c2ccc(Cl)cc2Cl)nc1)Nc1ccc(C(=O)NCCC(=O)O)cc1 [Compound 12-7, (S)-3-(4-((1-((2-(2,4-dichlorophenyl)pyrimidin-5-yl)oxy)hexan-2-yl)amino)benzamido)propanoic Acid]
2.719 | 0.331 | CCC(C)[C@@H](COc1cnc(-c2ccc(C(F)(F)F)cc2Cl)nc1)Nc1ccc(C(=O)NCCC(=O)O)cc1 (stereo partly drawn) [Compound 12-8, 3-(4-(((2S)-1-((2-(2-chloro-4-(trifluoromethyl)phenyl)pyrimidin-5-yl)oxy)-3-methylpentan-2-yl)amino)benzamido)propanoic Acid]
19.185 | 0.501 | CC(C)C[C@@H](COc1cnc(-c2ccc(C(F)(F)F)cc2Cl)nc1)Nc1ccc(C(=O)NCCC(=O)O)cc1 [Compound 12-9, (S)-3-(4-((1-((2-(2-chloro-4-(trifluoromethyl)phenyl)pyrimidin-5-yl)oxy)-4-methylpentan-2-yl)amino)benzamido)propanoic Acid]
0.89 | 0.337 | CCC(C)[C@@H](COc1cnc(-c2ccc(Cl)cc2Cl)nc1)Nc1ccc(C(=O)NCCC(=O)O)cc1 (stereo partly drawn) [Compound 12-10, 3-(4-(((2S)-1-((2-(2,4-dichlorophenyl)pyrimidin-5-yl)oxy)-3-methylpentan-2-yl)amino)benzamido)propanoic Acid]
3.585 | 0.233 | CC(C)C[C@@H](COc1cnc(-c2ccc(Cl)cc2Cl)nc1)Nc1ccc(C(=O)NCCC(=O)O)cc1 [Compound 12-11, (S)-3-(4-((1-((2-(2,4-dichlorophenyl)pyrimidin-5-yl)oxy)-4-methylpentan-2-yl)amino)benzamido)propanoic Acid]
0.157 | 0.046 | CC[C@H](C)[C@@H](COc1ccc(-c2cc3ccccc3o2)c(OC)c1)Nc1ccc(C(=O)NCCC(=O)O)cc1 [Compound 13-1, 3-(4-(((2S,3S)-1-(4-(benzofuran-2-yl)-3-methoxyphenoxy)-3-methylpentan-2-yl)amino)benzamido)propanoic Acid]
0.254 | 0.092 | CC[C@H](C)[C@@H](COc1ccc(-c2ccc(Cl)cc2Cl)c(OC)c1)Nc1ccc(C(=O)NCCC(=O)O)cc1 [Compound 13-2, 3-(4-(((2S,3S)-1-((2′,4′-dichloro-2-methoxy-[1,1′-biphenyl]-4-yl)oxy)-3-methylpentan-2-yl)amino)benzamido)propanoic Acid]
